The text below walks through data of patent publication US11109593B2, “Isoxazolin-5-one derivative and herbicide containing same as active ingredient” (HOKKO CHEMICAL INDUSTRY CO., LTD., priority 2017, dated 2021).

Holding throughout (format): in vivo
Assay [1] relates to Scirpus juncoides. The assay can be described thus: Test Example 1: herbicidal effect test by treatment of rice paddy soil (immediately after seeding). To be noted: 120 g/10a active ingredient, dry weight vs untreated area, 14 days after treatment. The method in brief:
(§1)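 Puddled, fertilized (N:P:K=17:17:17) paddy soil in Wagner pots; seeds sown 0–1 cm deep, flooded to about 3 cm. Emulsifiable formulations diluted in water and dropped into the water immediately after seeding at 120 g active ingredient per 10 ares; greenhouse. Herbicidal rate from dry weight vs untreated at 14 days.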

Assay [2] has as its system Echinochloa crus-galli. The description is as above. To be noted: 120 g/10a active ingredient, dry weight vs untreated area, 14 days after treatment. The method in brief: as §1
Assay [3] has as its system broad leaf weeds (Lindernia pyxidaria and Monochoria vaginalis). Described as above. The conditions noted are these: 120 g/10a active ingredient, dry weight vs untreated area, 14 days after treatment. The method in brief: as §1
For assay [4], the system named is Echinochloa crus-galli. The assay is described as follows: Test Example 3: herbicidal effect test by treatment of dry field farming soil (one day after seeding). The conditions noted are these: 120 g/10a active ingredient, evaluated 14 days after treatment. The method, then: (§2) This test was conducted in a double system per one agent solution concentration area, and the herbicidal rates (%) were determined by the following equation (Math. 1) on 14 days after the treatment with the agents. Herbicidal Rate (%)={1-(Average Dry Weight (g) of Plant of Treated Area)/(Average Dry Weight (g) of Plant of Untreated Area)}×100 [Math. 1]
(§3) Herbicidal Effect Test by Treatment of Dry Field Farming Soil
(§4) Pots with a size of 36 cm^2 were filled with a dry field farming soil (alluvium). The soil of the top layer of 1 cm and seeds of weeds, namely southern crabgrass, Echinochloa crus-galli, Chenopodium album and Amaranthus viridis, 20 seeds each, were evenly mixed, and the top layer was gently pressed. Emulsions prepared using the compounds in Table 5 below according to Formulation Example 5 were diluted with water one day after seeding, and the water-diluted agent solutions were sprayed to the soil surfaces at a ratio of 100 liters per 10 ares. The converted amount of the applied active ingredient corresponded to 120 g per 10 ares. The herbicidal effects were evaluated by the same standard as that in Test Example 1 on 14 days after the treatment with the agents. […] The compound numbers in Table 5 are the same as those in Table 1 and Table 2 above.

A further assay has as its system Chenopodium album. The assay is described as above. The conditions noted are these: 120 g/10a active ingredient, evaluated 14 days after treatment. The method, then:
as §2, §3, §4

A further assay has as its system Amaranthus viridis. Described as above. The conditions noted are these: 120 g/10a active ingredient, evaluated 14 days after treatment. The protocol:
as §2, §3, §4

The next assay deals with southern crabgrass. The description is as above. To be noted: 120 g/10a active ingredient, evaluated 14 days after treatment. The protocol: as §2, §3, §4
Assay [5] concerns Scirpus juncoides. The assay is described as follows: Test Example 2: herbicidal effect test by treatment during growing period in paddy rice cultivation (seven days after seeding). The conditions noted are these: 120 g/10a active ingredient, assessed 14 days after treatment, dry weight vs untreated area. The method in brief:
(§5)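 Seeds sown 0–1 cm deep in puddled, fertilised paddy soil with about 3 cm standing water in a glass greenhouse. Diluted emulsion dropped into the water seven days after seeding at 120 g active ingredient per 10 ares. Herbicidal rate (%) from mean dry weight vs untreated, duplicate, 14 days after treatment.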

In assay [6] the test system is Echinochloa crus-galli. The assay is described as above. To be noted: 120 g/10a active ingredient, assessed 14 days after treatment, dry weight vs untreated area. The method in brief: as §5
Assay [7] deals with broad leaf weeds (Lindernia pyxidaria and Monochoria vaginalis). The description is as above. To be noted: 120 g/10a active ingredient, assessed 14 days after treatment, dry weight vs untreated area. Put shortly: as §5

Take `Cc1c(Cc2ccccc2NS(=O)(=O)C(F)(F)F)c(=O)on1CCCc1ccccc1` [Compound 1-221]: the “Herbicidal rate (%) Scirpus juncoides” value in the assay on Scirpus juncoides [1] is on record as 80%; in the assay on Scirpus juncoides [5], 40%. In addition, the entries for the “Herbicidal rate (%) Echinochloa crus-galli” value in the assay with Echinochloa crus-galli [2] and with Echinochloa crus-galli [6] were 90% and 60%, respectively. In addition, the entries for the “Herbicidal rate (%) Lindernia pyxidaria” value in [3] and in assay [7] were 70% and 40%, respectively. Besides, the “Herbicidal rate (%) Monochoria vaginalis” value in [3] stood at 60%; in assay [7] it was 40%. The “herbicidal rate, Echinochloa crus-galli” value with Echinochloa crus-galli [4] was 70%. In addition, in the assay with Chenopodium album, the “herbicidal rate, Chenopodium album” value is 40%. Further, in the assay on Amaranthus viridis, the “herbicidal rate, Amaranthus viridis” value was found to be 50%. Moreover, the “herbicidal rate, southern crabgrass” value with southern crabgrass was determined as 50%.
Take `Cc1c(Cc2ccccc2NS(=O)(=O)C(F)(F)F)c(=O)on1C1CCCc2ccccc21` (stereo not drawn) [Compound 1-224]: the figures for the “Herbicidal rate (%) Scirpus juncoides” value with Scirpus juncoides [1] and in the assay with Scirpus juncoides [5] were 90% and 80%, respectively. The “Herbicidal rate (%) Echinochloa crus-galli” value in the assay on Echinochloa crus-galli [2] is given as 100%; in the assay on Echinochloa crus-galli [6], 90%. The figures for the “Herbicidal rate (%) Lindernia pyxidaria” value in assay [3] and in [7] were 100% and 60%, respectively. Further, the “Herbicidal rate (%) Monochoria vaginalis” value in assay [3] amounted to 100%; in [7], 80%. Further, the “herbicidal rate, Echinochloa crus-galli” value in the assay on Echinochloa crus-galli [4] was 100%. Besides, the “herbicidal rate, Chenopodium album” value in the assay with Chenopodium album worked out at 90%. Besides, the “herbicidal rate, Amaranthus viridis” value in the assay on Amaranthus viridis was determined as 100%. In the assay on southern crabgrass, the “herbicidal rate, southern crabgrass” value is reported as 100%.
Consider `Cc1c(Cc2ccccc2NS(=O)(=O)C(F)(F)F)c(=O)on1CC1(C)COC1` [Compound 1-229], for which the “Herbicidal rate (%) Scirpus juncoides” value with Scirpus juncoides [1] and with Scirpus juncoides [5] was 90% each time. Also, the “Herbicidal rate (%) Echinochloa crus-galli” value with Echinochloa crus-galli [2] and in the assay on Echinochloa crus-galli [6] was 70% in each case. For the same molecule, the results for the “Herbicidal rate (%) Lindernia pyxidaria” value in assay [3] and in assay [7] were 80% and 60%, respectively. Moreover, the “Herbicidal rate (%) Monochoria vaginalis” value is on record as 100% in assay [3] and 90% in assay [7]. Moreover, the “herbicidal rate, Echinochloa crus-galli” value in the assay on Echinochloa crus-galli [4] was determined as 40%. The “herbicidal rate, Chenopodium album” value with Chenopodium album was found to be 40%. Besides, the “herbicidal rate, Amaranthus viridis” value in the assay with Amaranthus viridis was 60%. Besides, the “herbicidal rate, southern crabgrass” value with southern crabgrass is given as 60%.
Take `Cc1c(Cc2ccccc2NS(=O)(=O)C(F)(F)F)c(=O)on1CCOc1ccccc1` [Compound 1-237]: the “Herbicidal rate (%) Scirpus juncoides” value with Scirpus juncoides [1] was found to be 80%; in the assay with Scirpus juncoides [5], 90%. Besides, the “Herbicidal rate (%) Echinochloa crus-galli” value in the assay with Echinochloa crus-galli [2] and with Echinochloa crus-galli [6] was 90% each time. In addition, the “Herbicidal rate (%) Lindernia pyxidaria” value turned out to be 90% in assay [3] and 60% in assay [7]. The “Herbicidal rate (%) Monochoria vaginalis” value is reported as 80% in [3] and 90% in assay [7]. Also, the “herbicidal rate, Echinochloa crus-galli” value in the assay with Echinochloa crus-galli [4] is recorded as 50%. Further, the “herbicidal rate, Chenopodium album” value in the assay on Chenopodium album is 40%. The “herbicidal rate, Amaranthus viridis” value in the assay with Amaranthus viridis came to 80%. The “herbicidal rate, southern crabgrass” value in the assay with southern crabgrass is 50%.
For the molecule `Cc1c(Cc2ccccc2NS(=O)(=O)C(F)(F)F)c(=O)on1S(=O)(=O)C(C)C` [Compound 1-251], the results for the “Herbicidal rate (%) Scirpus juncoides” value with Scirpus juncoides [1] and in the assay with Scirpus juncoides [5] were 80% and 90%, respectively. In addition, the “Herbicidal rate (%) Echinochloa crus-galli” value in the assay with Echinochloa crus-galli [2] turned out to be 100%; with Echinochloa crus-galli [6] it was 50%. The figures for the “Herbicidal rate (%) Lindernia pyxidaria” value in [3] and in assay [7] were 90% and 50%, respectively. Also, the “Herbicidal rate (%) Monochoria vaginalis” value in [3] turned out to be 100%; in assay [7], 80%. The “herbicidal rate, Echinochloa crus-galli” value in the assay on Echinochloa crus-galli [4] was determined as 100%. For the same molecule, in the assay with Chenopodium album, the “herbicidal rate, Chenopodium album” value was determined as 80%. Besides, in the assay with Amaranthus viridis, the “herbicidal rate, Amaranthus viridis” value is listed as 80%. Moreover, the “herbicidal rate, southern crabgrass” value with southern crabgrass is given as 80%.
